Results from PubChem BioAssay AID248 (DTP/NCI, 2004).
Where “and” joins values, the source holds several entries; their conditions need not be identical. Identical values can stand only once. Inconclusive results and toxic doses are left out.

Test system: L1210 leukemia ip in BDF1 mice, survival T/C
Experiment: NCI In Vivo Anticancer Drug Screen. Data for tumor model L1210 Leukemia (intraperitoneal) in B6D2F1 (BDF1) mice
Conditions: endpoint: mean survival time, higher = longer survival
Summary of the method: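 Transplanted-tumor mice were given test agent; controls received vehicle only. Survival readings from the two groups were divided (treated over control).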

[1] = dose: 100.0 mg/kg/injection, schedule: Q01DX001 (ip), vehicle: carboxymethylcellulose (CMC)
[2] = dose: 200.0 mg/kg/injection, schedule: Q01DX001 (ip), vehicle: carboxymethylcellulose (CMC)
[3] = dose: 400.0 mg/kg/injection, schedule: Q01DX001 (ip), vehicle: carboxymethylcellulose (CMC)
[4] = dose: 100.0 mg/kg/injection, schedule: Q01DX001 (ip), vehicle: saline with Tween-80
[5] = dose: 200.0 mg/kg/injection, schedule: Q01DX001 (ip), vehicle: saline with Tween-80
[6] = dose: 400.0 mg/kg/injection, schedule: Q01DX001 (ip), vehicle: saline with Tween-80
[7] = dose: 100.0 mg/kg/injection, schedule: Q01DX001 (ip), vehicle: saline
[8] = dose: 100.0 mg/kg/injection, schedule: Q04DX003 (ip), vehicle: saline
[9] = dose: 200.0 mg/kg/injection, schedule: Q01DX001 (ip), vehicle: saline
[10] = dose: 200.0 mg/kg/injection, schedule: Q04DX003 (ip), vehicle: saline
[11] = dose: 400.0 mg/kg/injection, schedule: Q04DX003 (ip), vehicle: saline
[12] = dose: 100.0 mg/kg/injection, schedule: Q04DX003 (ip), vehicle: Klucel (hydroxypropylcellulose) (HPC)
[13] = dose: 50.0 mg/kg/injection, schedule: Q04DX003 (ip), vehicle: saline
[14] = dose: 25.0 mg/kg/injection, schedule: Q01DX009 (ip), vehicle: gum acacia
[15] = dose: 25.0 mg/kg/injection, schedule: Q04DX003 (ip), vehicle: gum acacia
[16] = dose: 50.0 mg/kg/injection, schedule: Q01DX009 (ip), vehicle: gum acacia
[17] = dose: 50.0 mg/kg/injection, schedule: Q04DX003 (ip), vehicle: gum acacia
[18] = dose: 100.0 mg/kg/injection, schedule: Q01DX009 (ip), vehicle: Klucel (hydroxypropylcellulose) (HPC)
[19] = dose: 200.0 mg/kg/injection, schedule: Q01DX009 (ip), vehicle: Klucel (hydroxypropylcellulose) (HPC)
[20] = dose: 200.0 mg/kg/injection, schedule: Q04DX003 (ip), vehicle: Klucel (hydroxypropylcellulose) (HPC)
[21] = dose: 400.0 mg/kg/injection, schedule: Q01DX009 (ip), vehicle: Klucel (hydroxypropylcellulose) (HPC)
[22] = dose: 400.0 mg/kg/injection, schedule: Q04DX003 (ip), vehicle: Klucel (hydroxypropylcellulose) (HPC)
[23] = dose: 100.0 mg/kg/injection, schedule: Q04DX003 (ip), vehicle: carboxymethylcellulose (CMC)
[24] = dose: 200.0 mg/kg/injection, schedule: Q04DX003 (ip), vehicle: carboxymethylcellulose (CMC)

CCOC(=O)Nc1cc(NC(c2ccccc2)c2ccccc2)c([N+](=O)[O-])c(NC/C(C)=N/NC(N)=O)n1
T/C [1]: 95 % of control
T/C [2]: 93 % of control
T/C [3]: 89 % of control

Cc1c(C)c2c(c(C)c1O)CC(CC(=O)CO)CO2 (centres undefined)
T/C [4]: 97 % of control
T/C [5]: 95 % of control
T/C [6]: 97 % of control

CCNc1nc(Cl)nc(-c2cn(-c3ccccc3)c3ccccc23)n1
T/C [7]: 93 % of control
T/C (dose: 100.0 mg/kg/injection, schedule: Q01DX009 (ip), vehicle: saline with Tween-80): 101 % of control
T/C [8]: 99 % of control
T/C [9]: 90 % of control
T/C (dose: 200.0 mg/kg/injection, schedule: Q01DX009 (ip), vehicle: saline with Tween-80): 92 % of control
T/C [10]: 92 % of control
T/C (dose: 400.0 mg/kg/injection, schedule: Q01DX001 (ip), vehicle: saline): 88 % of control
T/C [11]: 94 % of control

O=[N+]([O-])c1cc(Cl)cc(Br)c1O
T/C (dose: 12.5 mg/kg/injection, schedule: Q04DX003 (ip), vehicle: Klucel (hydroxypropylcellulose) (HPC)): 100 % of control
T/C (dose: 25.0 mg/kg/injection, schedule: Q04DX003 (ip), vehicle: Klucel (hydroxypropylcellulose) (HPC)): 102 % of control
T/C (dose: 50.0 mg/kg/injection, schedule: Q04DX003 (ip), vehicle: Klucel (hydroxypropylcellulose) (HPC)): 105 % of control
T/C [12]: 103 % of control

CC1=C2CCC(C)CC23C2C(=O)OC(=O)C2C1C1C(=O)OC(=O)C13 (centres undefined)
T/C (dose: 25.0 mg/kg/injection, schedule: Q01DX009 (ip), vehicle: saline): 100 % of control
T/C [13]: 101 % of control
T/C [7]: 93 % of control
T/C [8]: 90 % of control
T/C [9]: 108 % of control

CN(NC(=O)CC(=O)NN(C)C(=S)c1ccc(Cl)cc1)C(=S)c1ccc(Cl)cc1
T/C [14]: 96 % of control
T/C [15]: 92 % of control
T/C [16]: 91 % of control
T/C [17]: 93 % of control
T/C (dose: 100.0 mg/kg/injection, schedule: Q01DX009 (ip), vehicle: gum acacia): 89 % of control
T/C (dose: 100.0 mg/kg/injection, schedule: Q04DX003 (ip), vehicle: gum acacia): 90 % of control
T/C (dose: 200.0 mg/kg/injection, schedule: Q04DX003 (ip), vehicle: gum acacia): 86 % of control
T/C (dose: 400.0 mg/kg/injection, schedule: Q04DX003 (ip), vehicle: gum acacia): 92 % of control

CCC(=O)OC1CCC2C3CCC4=CC(=O)CCC4(C)C3CCC12C (centres undefined)
T/C [1]: 107 % of control
T/C [2]: 96 % of control
T/C [3]: 96 % of control

CCOC(=O)c1cc(C(=O)OCC)c(C#N)c(=O)[nH]1
T/C [18]: 103 % of control
T/C [12]: 100 % of control
T/C [19]: 88 % of control
T/C [20]: 88 % of control
T/C [21]: 94 % of control
T/C [22]: 98 % of control

Cc1ccccc1C(C)(O)Cc1nccn1Cc1ccccc1 (centres undefined)
T/C [8]: 90 % of control
T/C [10]: 95 % of control
T/C [11]: 103 % of control

CCN(CC)CCOC(=O)c1ccccc1Nc1cccc(C)c1
T/C (dose: 4.0 mg/kg/injection, schedule: Q01DX015 (ip), vehicle: saline): 98 % of control
T/C (dose: 8.0 mg/kg/injection, schedule: Q01DX015 (ip), vehicle: saline): 102 % of control
T/C (dose: 16.0 mg/kg/injection, schedule: Q01DX015 (ip), vehicle: saline): 98 % of control
T/C (dose: 32.0 mg/kg/injection, schedule: Q01DX015 (ip), vehicle: saline): 106 % of control
T/C [13]: 101 % of control
T/C [8]: 103 % of control

O=C1/C(=C/c2ccccn2)CCc2cc(Cl)ccc21
T/C [23]: 93 % of control
T/C [24]: 96 % of control
T/C (dose: 400.0 mg/kg/injection, schedule: Q04DX003 (ip), vehicle: carboxymethylcellulose (CMC)): 96 % of control

c1ccc(-c2ccc([Si](c3ccc(-c4ccccc4)cc3)(c3ccc(-c4ccccc4)cc3)c3ccc(-c4ccccc4)cc3)cc2)cc1
T/C (dose: 12.5 mg/kg/injection, schedule: Q01DX009 (ip), vehicle: gum acacia): 95 % of control
T/C (dose: 12.5 mg/kg/injection, schedule: Q04DX003 (ip), vehicle: gum acacia): 106 % of control
T/C [14]: 100 % of control
T/C [15]: 95 % of control
T/C [16]: 86 % of control
T/C [17]: 92 % of control

C=Cc1cc(C)cc(OC)c1O
T/C (dose: 50.0 mg/kg/injection, schedule: Q01DX009 (ip), vehicle: Klucel (hydroxypropylcellulose) (HPC)): 87 % of control
T/C [18]: 89 % of control
T/C [19]: 87 % of control

C[N+]([O-])(CCC#N)CC(=O)O (centres undefined)
T/C [7]: 97 % of control
T/C [9]: 101 % of control

CSc1cccc(/C=C\c2ccc([N+](=O)[O-])cc2)c1
T/C [18]: 101 % of control
T/C [12]: 94 % of control
T/C [19]: 100 % of control
T/C [20]: 94 % of control
T/C [21]: 88 % of control
T/C [22]: 96 % of control

N#Cc1c(Cl)nsc1Cl
T/C [18]: 97 % of control
T/C [19]: 102 % of control

CC(=N\N=C(N)N)/C(N=Nc1ccc(S(N)(=O)=O)cc1)=N\N=C(N)N
T/C (dose: 15.0 mg/kg/injection, schedule: Q01DX Z (ip), vehicle: carboxymethylcellulose (CMC)): 105 % of control
T/C (dose: 30.0 mg/kg/injection, schedule: Q01DX Z (oral), vehicle: carboxymethylcellulose (CMC)): 96 % of control and 102 % of control
T/C (dose: 60.0 mg/kg/injection, schedule: Q01DX Z (ip), vehicle: carboxymethylcellulose (CMC)): 160 % of control and 168 % of control and 184 % of control
T/C (dose: 60.0 mg/kg/injection, schedule: Q01DX Z (oral), vehicle: carboxymethylcellulose (CMC)): 109 % of control and 120 % of control
T/C (dose: 120.0 mg/kg/injection, schedule: Q01DX Z (oral), vehicle: carboxymethylcellulose (CMC)): 113 % of control

CCCCC(=O)N1CCCCC1
T/C (dose: 50.0 mg/kg/injection, schedule: Q01DX001 (ip), vehicle: carboxymethylcellulose (CMC)): 104 % of control
T/C (dose: 50.0 mg/kg/injection, schedule: Q01DX009 (ip), vehicle: carboxymethylcellulose (CMC)): 94 % of control and 97 % of control
T/C (dose: 50.0 mg/kg/injection, schedule: Q04DX003 (ip), vehicle: carboxymethylcellulose (CMC)): 102 % of control
T/C [1]: 106 % of control
T/C (dose: 100.0 mg/kg/injection, schedule: Q01DX009 (ip), vehicle: carboxymethylcellulose (CMC)): 94 % of control and 102 % of control
T/C (dose: 100.0 mg/kg/injection, schedule: Q04DX002 (ip), vehicle: carboxymethylcellulose (CMC)): 98 % of control
T/C [23]: 96 % of control
T/C [2]: 101 % of control
T/C (dose: 200.0 mg/kg/injection, schedule: Q01DX009 (ip), vehicle: carboxymethylcellulose (CMC)): 96 % of control and 87 % of control
T/C (dose: 200.0 mg/kg/injection, schedule: Q04DX002 (ip), vehicle: carboxymethylcellulose (CMC)): 91 % of control
T/C [24]: 97 % of control

CCCCC(NC(=O)CN)C(=O)O (centres undefined)
T/C (dose: 25.0 mg/kg/injection, schedule: Q01DX001 (ip), vehicle: Klucel (hydroxypropylcellulose) (HPC)): 105 % of control
T/C (dose: 50.0 mg/kg/injection, schedule: Q01DX001 (ip), vehicle: Klucel (hydroxypropylcellulose) (HPC)): 103 % of control
T/C (dose: 100.0 mg/kg/injection, schedule: Q01DX001 (ip), vehicle: Klucel (hydroxypropylcellulose) (HPC)): 100 % of control

O=C(NCc1ccccc1)C(F)(F)F
T/C [4]: 102 % of control
T/C [5]: 102 % of control
T/C [6]: 100 % of control

Cc1cccn2c(=O)c(/C=N\NC(N)=S)c(Cl)nc12
T/C [1]: 105 % of control
T/C [2]: 96 % of control
T/C [3]: 94 % of control

Cc1ccc(-n2ccnc2)c(N=Cc2ccc(N(CCCl)CCCl)cc2F)c1
T/C (dose: 100.0 mg/kg/injection, schedule: Q04DX002 (ip), vehicle: Klucel (hydroxypropylcellulose) (HPC)): 98 % of control
T/C (dose: 200.0 mg/kg/injection, schedule: Q04DX002 (ip), vehicle: Klucel (hydroxypropylcellulose) (HPC)): 106 % of control
T/C (dose: 400.0 mg/kg/injection, schedule: Q04DX002 (ip), vehicle: Klucel (hydroxypropylcellulose) (HPC)): 106 % of control
